From patent publication US20250082656A1, “DOSAGE REGIMENS FOR TREATMENT OF DENGUE INFECTION” (Atea Pharmaceuticals, Inc., priority 2022, published 2025) come the findings set out here.

The conditions of data set [1]: for Tmax / AUCtau / Cmax: steady-state, human plasma; for Tmax: median (minimum-maximum); for AUCtau / Cmax: mean±SD.
Data set [2] is described as follows: Multiple-dose tolerability and steady state exposure, mice. Type of data set: in vivo, CD-1 mice. As to the method:
There were no adverse clinical signs observed in the mice so the multiple doses of the prodrug were well-tolerated.
Separately, two mouse studies with multiple dosing were conducted. First, 9 naïve CD-1 mice were administered Compound 1 (AT-281) in 100 mM citrate buffer, pH 4.5 by oral gavage at 500 mg/kg for the first dose and, 4 h later, 250 mg/kg for the second dose. Blood samples were collected, 3 animals per time point, at 4 (before the second dosing), 8 and 16 h post the first dose, and PBMCs isolated. Secondly, 9 naïve CD-1 mice were administered Compound 1 (AT-281) by oral gavage at 1000 mg/kg for the first dose, and then 4 h later, they were given twice daily doses 12 hours apart for 3 consecutive days at 500 mg/kg. Blood samples were collected, 3 animals per time point, at 16 (received one 500 mg/kg dose), 40 (received three 500 mg/kg doses) and 76 h post first dose (received six 500 mg/kg doses), and PBMCs were isolated.
(§1) Pharmacokinetic measurements for FIGS. 11, 12, 13, 14, and 15 were analyzed using LC-MS/MS according to the protocol described herein. Plasma samples were prepared for MS analysis by adding internal standards and extracting with 20 volumes chilled ACN. After vortex (800 rpm for 10 min) and centrifugation (4,000 rpm, 15 min, 4° C.), the supernatants (25 μL) were diluted with an equal volume of H2O, mixed and spun again. After adding internal standards, the PBMC samples (10^6 cells) were lyzed with 300 μL MeOH/H2O (70:30, v/v) and 40 mM dibutylammonium acetate (DBAA), mixed by vortex and centrifuged (12,000 rpm, 15 min, 4° C.). Aliquots of the supernatants (35 μL) were dried under nitrogen and reconstituted in H2O, then mixed and spun again. […] A binary nonlinear gradient with mobile phases A (0.1% formic acid in water) and B (0.1% formic acid in ACN) were used to elute samples at 0.8 mL/min, with a run time of 5 min. […] A binary nonlinear gradient with mobile phases A (0.001% NHr H2O, 0.18 mM DBAA in H2O) and B (10 mM N,N-dimethyl-hexylamine, 3 mM NH4OAc in ACN/H2O (50.50, v/v)) were used to elute samples at 0.5 mL/min, with a run time of 3 min. Standards in 50% MeOH were used for calibration. […] Internal standards (ISS) as described previously (Good et al., Preclinical evaluation of AT-527, a novel guanosine nucleotide prodrug with potent, pan-genotypic activity against hepatitis C virus. PLos One 15:e02271045) were used to correct for variations in recovery.

Data set [3] can be described thus: Plasma PK after single oral dose of AT-752, monkeys. The data set is classed as in vivo, cynomolgus monkeys. The conditions noted are these: Monkey, single oral AT-752 300 mg/kg. As to the method: Male cynomolgus monkeys were administered 300 mg/kg Compound 2 (AT-752). Blood samples were collected up to 24 hrs. post dose, plasma separated and analyzed for Compound 1 (AT-281), Compound 3 (AT-551), and Compound 6 (AT-273) by LC-MS/MS. Data are express as mean+/−SD (n=3-5/time point). The x-axis is time post the dose measured in hours and the y-axis is the plasma concentration of the metabolites measured in nanomoles/mL). The experimental procedure is provided in Example 14.
Male non-naïve cynomolgus monkeys (Hainan Jingang Laboratory Animal Co. Ltd., China), at least 2 kg body weight, were individually housed during the study in stainless steel mesh cages, provided ad libitum access to RO water, fed twice daily (except on the day of dosing when they were fed once) with ˜60 g Certified Monkey Diet each feed (Beijing Vital Keao Feed Co., Ltd., Beijing, China) and given daily treats of fresh fruit. They (n=5) were administered a dose of Compound 2 (AT-752) at 300 mg/kg in 40% PEG400, 10% solutol HS15, 50% 100 mM citrate buffer, pH 4.5 (v/v) by oral gavage, and blood samples (˜0.5 mL) were collected at 1, 2, 4, 8, 12 and 24 h post dose. Plasma was separated at each time point for pharmacokinetics, and stored at −70° C. […] Separately, three monkeys were given an oral dose of Compound 2 (AT-752) as powder in capsules at 60 mg/kg ([…] (AT-281) equivalent dose of 55 mg/kg), and blood samples collected at 12, 24 and 48 h post dose.
as §1
(§2) Data analysis of the pharmacokinetic data generated according to Example 21 and presented in FIGS. 11, 12, 13, 14, and 15 was analyzed according to the procedure described herein. Plasma concentrations of Compound 1 (AT-281), Compound 3 (AT-551) and Compound 6 (AT-273) were subjected to non-compartmental pharmacokinetic analysis using Phoenix WinNonlin software (version 6.3 or above, Pharsight, Mountain View, CA). The linear/log trapezoidal rule was applied in obtaining the PK parameters.

Data set [4] can be described thus: Plasma PK after single oral dose of AT-752, mice. Conditions: Mouse, single oral AT-752 420 mg/kg.
Data set [5] is described as follows: Plasma PK after single oral dose of AT-752, rats. The data set is classed as in vivo, SD rats. Conditions: Rat, single oral AT-752 300 mg/kg. As to the method: Male SD rats were administered 300 mg/kg Compound 2 (AT-752). Blood samples were collected up to 24 hrs. post dose, plasma separated and analyzed for Compound 1 (AT-281), Compound 3 (AT-551), and Compound 6 (AT-273) by LC-MS/MS. Data are express as mean+/−SD (n=3-5/time point). The x-axis is time post the dose measured in hours and the y-axis is the plasma concentration of the metabolites measured in nanomoles/mL). The experimental procedure is provided in Example 14.
Male naïve SD rats (Beijing Vital River Laboratory Animals Co. Ltd., China) were administered a dose of AT-752 at 300 mg/kg in 40% PEG400, 10% solutol HS15, 50% 100 mM citrate buffer, pH 4.5 (v/v) by oral gavage. Blood samples (n=4) were collected at 1, 2, 4, 8, 12 and 24 h post-dose, plasma separated and stored at −70° C. […] For PBMCs, nine male naïve SD rats were administered a dose of Compound 2 (AT-752) (at a Compound 1 (AT-281) equivalent dose of 300 mg/kg) by oral gavage.
as §1, §2

The mark [6] stands for this setting: 1000 mg/kg loading then 500 mg/kg twice a day for 3 days, 12 h after the sixth 500 mg/kg dose.
Setting [7] is: 1000 mg/kg loading then 500 mg/kg twice a day, 12 h after the first 500 mg/kg dose.

Like-named read-outs stand apart in the source and are kept apart here.

For orientation: Cmax means the maximum level reached in the sampled fluid or tissue. In the case of `CNc1nc(N)nc2c1ncn2[C@@H]1O[C@H](CO[P@](=O)(N[C@@H](C)C(=O)OC(C)C)Oc2ccccc2)[C@@H](O)[C@@]1(C)F` [Compound 1, isopropyl ((R)-(((2R,3R,4R,5R)-5-(2-amino-6-(methylamino)-9H-purin-9-yl)-4-fluoro-3-hydroxy-4-methyltetrahydrofuran-2-yl)methoxy)(phenoxy)phosphoryl)-L-alaninate], in data set [1] (Compound 2 750 mg TID), the Tmax is listed as 0.5 (0.5-1.0) h. In data set [2] (1000 mg/kg loading then 500 mg/kg twice a day for 3 days), the “tolerability of multiple doses (adverse clinical signs)” value was “well-tolerated”. For the same molecule, the “time present in plasma” value in data set [3] is listed as “more than 4 h”. Also, in data set [3] (plasma), the AUC0-24 h amounted to 9.5 ± 3.7 µM·h, the peak level (Cmax) was 3700 ± 1500 nM and the Tmax is on record as 1 h. Besides, in data set [4], the AUC0-24 h worked out at 4.2 ± 0.5 µM·h, the Cmax is 2600 ± 300 nM and the Tmax is 0.8 ± 0.3 h. Moreover, in data set [5], the “plasma concentration at 1 h, the earliest time point measured” value is given as “below the limit of quantitation”.
As to `C[C@@]1(F)[C@H](O)[C@@H](COP(=O)(O)OP(=O)(O)OP(=O)(O)O)O[C@H]1n1cnc2c(=O)[nH]c(N)nc21` [Compound 5], the “concentration of AT-9010 in pooled PBMCs” value in data set [2] (setting [6]) is reported as 0.575 pmol/10^6 cells; in data set [2] (setting [7]), 0.421 pmol/10^6 cells.
Take `C[C@@]1(F)[C@H](O)[C@@H](CO)O[C@H]1n1cnc2c(=O)[nH]c(N)nc21` [Compound 6, 2′-fluoro-2′-C-methylguanosine]: the “increase of plasma exposure on multiple dosing” value is listed as about 60% in data set [1] (BID), “approximately 25%” in data set [1] (QD) and about 80% in data set [1] (TID). Also, the AUCtau in data set [1] (Compound 2 750 mg BID) was determined as 2680 ± 730 ng·h/mL; in data set [1] (Compound 2 750 mg TID) it was 2370 ± 743 ng·h/mL; in data set [1] (Compound 2 1000 mg QD) it was 3120 ± 694 ng·h/mL. Moreover, the Cmax in data set [1] (Compound 2 750 mg BID) is 288 ± 58 ng/mL; in data set [1] (Compound 2 750 mg TID), 330 ± 98 ng/mL; in data set [1] (Compound 2 1000 mg QD) it was 241 ± 56 ng/mL; in data set [3] (plasma), 800 ± 200 nM; in data set [4], 2300 ± 700 nM; in data set [5] (plasma) it was 1300 ± 300 nM. Moreover, the Tmax in data set [1] (Compound 2 750 mg BID) is on record as 3.5 (3.0-4.0) h; in data set [1] (Compound 2 750 mg TID) it was 3.5 (3.0-6.0) h; in data set [1] (Compound 2 1000 mg QD), 4.0 (3.0-4.0) h; in data set [5] (plasma), 8.0 ± 0.0 h. Moreover, the plasma concentration in data set [2] (setting [6]) was found to be 1350 ± 860 nM; in data set [2] (setting [7]), 670 ± 120 nM. The AUC0-24 h in data set [3] (plasma) came out at 7.8 ± 2.4 µM·h; in data set [4], 18.8 ± 6.0 µM·h; in data set [5] (plasma), 22.9 µM·h.
